For the experiment, the system named is LP-1 cell line. Put plainly: Cell-based pERK ELISA, LP-1 cells. Particulars: LP-1 human multiple myeloma cells, FGF-1/Heparin stimulation; read-out: IC50 against the LP-1 cell line (pERK ELISA). The method, then:
Enzyme buffer A: 8 mM MOPS, pH 7.0, 0.2 mM EDTA, 10 mM MgAcetate Enzyme buffer B: 8 mM MOPS, pH 7.0, 0.2 mM EDTA, 2.5 mM MnCl2, 10 mM MgAcetate Enzyme buffer C: 8 mM Mops, pH 7.0, 0.2 mM EDTA, 10 mM MnCl2, 10 mM MgAcetate. Cell-Based pERK ELISA Method
LP-1 or JIM-1 multiple myeloma cells were seeded in 96 well plates at 1×10^6 cells/ml in 200 μl per well in serum free media. HUVEC cells were seeded at 2.5×10^5 cells/ml and allowed to recover for 24 h prior to transfer to serum free media. Cells were incubated for 16 h at 37° C. prior to the addition of a test compound for 30 minutes. Test compounds were administered at a 0.1% final DMSO concentration. Following this 30 minute incubation a FGF-1/Heparin (FGF-1 at 100 ng/ml final and Heparin at 100 ug/ml) mixture or VEGF^165 (100 ug/ml) was added to each of the wells for a further 5 minutes. The media was removed and 50 ul ERK ELISA lysis buffer (R and D Systems DuoSet ELISA for pERK and Total ERK #DYC-1940E, DYC-1018E) added. ELISA plates and standards were prepared according to the standard DuoSet protocols and the relative amounts of pERK to total ERK in each sample calculated according to the standard curve.
In particular, compounds of the invention were tested against the LP-1 cell line (DSMZ no.: ACC 41) derived from human multiple myeloma.
For orientation: In an ELISA, binding on a coated surface is turned into a signal by an enzyme label.

Regarding `O=C(c1ccn2c(-c3cccc(Nc4nncs4)c3)cnc2c1)N1CCC1` [Example 2, Azetidin-1-yl-{3-[3-([1,3,4]thiadiazol-2-ylamino)-phenyl]-imidazo[1,2-a]pyridine-7-yl}-methanone], the IC50 (in general, the concentration at which inhibition is half-maximal) was less than 1000 nM.

For the origin of these results see patent US8859582B2, “Bicyclic heterocyclic compounds as protein tyrosine kinase inhibitors” (Astex Therapeutics Limited, priority 2007, dated 2014).
